Experimental data from patent US9802901B2, “Antibacterial 2H-indazole derivatives” (priority 2013, dated 2017).
Read-outs that look alike come from different tables or passages of the source.

Legend:
wild-type E. coli A-1261 = experiment: MIC against wild-type E. coli A-1261 with or without alkaline phosphatase or esterase; format: cell-based; conditions: Escherichia coli
Protocol: Minimal Inhibitory Concentrations (MICs; mg/L) were determined in cation-adjusted Mueller-Hinton Broth by a microdilution method following the description given in “Methods for Dilution Antimicrobial Susceptibility Tests for Bacteria that Grow Aerobically”, Approved standard, 7th ed., Clinical and Laboratory Standards Institute (CLSI) Document M7-A7, Wayne, Pa., USA (2006).
The compounds of Examples 62 and 63 were tested against wild-type E. coli A-1261 in the absence of alkaline phosphatase or esterase, in the presence of an alkaline phosphatase and in the presence of an esterase. The corresponding antibacterial test results are given in Table 2 hereafter (MICs in mg/L).

[1] = system: Acinetobacter baumannii T6474; experiment: Bacterial growth minimal inhibitory concentration (broth microdilution, CLSI M7-A7); format: cell-based; conditions: Acinetobacter baumannii, T6474; cation-adjusted Mueller-Hinton Broth, microdilution; multiply-resistant (quinolone-resistant) strain; read-out: MIC for A. Baumannii T6474
Method in brief: (§1)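 Broth microdilution in cation-adjusted Mueller-Hinton Broth per CLSI M7-A7; MICs reported in mg/L. K. pneumoniae A-651 and A. baumannii T6474 are multiply resistant, quinolone-resistant strains; E. coli ATCC25922 and P. aeruginosa ATCC27853 are quinolone-sensitive.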

P. aeruginosa ATCC27853 = experiment: as above; format: cell-based, Pseudomonas aeruginosa; conditions: Pseudomonas aeruginosa, ATCC27853; cation-adjusted Mueller-Hinton Broth, microdilution; quinolone-sensitive strain; read-out: MIC for P. aeruginosa ATCC27853
Method in brief: as §1

K. pneumoniae A-651 = experiment: as above; format: cell-based, Klebsiella pneumoniae; conditions: Klebsiella pneumoniae, A651; cation-adjusted Mueller-Hinton Broth, microdilution; multiply-resistant (quinolone-resistant) strain; read-out: MIC for K. Pneumoniae A-651
Method in brief: as §1

E. coli ATCC25922 = experiment: as above; format: cell-based, Escherichia coli; conditions: Escherichia coli, ATCC25922; cation-adjusted Mueller-Hinton Broth, microdilution; quinolone-sensitive strain; read-out: MIC for E. coli ATCC25922
Method in brief: as §1

[2] = alkaline phosphatase 2 i.U./mL, read-out: MIC for E. coli A-1261 In the presence of an alkaline phosphatase (2 i.U./mL)
[3] = esterase 10 i.U./mL, read-out: MIC for E. coli A-1261 In the presence of an esterase (10 i.U./mL)
[4] = no alkaline phosphatase or esterase, read-out: MIC for E. coli A-1261 In the absence of alkaline phosphatase or esterase

| MIC (wild-type E. coli A-1261; [2]) [µg/mL] | MIC (wild-type E. coli A-1261; [3]) [µg/mL] | MIC (wild-type E. coli A-1261; [4]) [µg/mL] | MIC [1] [µg/mL] | MIC (P. aeruginosa ATCC27853) [µg/mL] | MIC (K. pneumoniae A-651) [µg/mL] | MIC (E. coli ATCC25922) [µg/mL] | Structure (SMILES) |
| --- | --- | --- | --- | --- | --- | --- | --- |
| 1 | > 16 | > 16 | – | – | – | – | C[C@@](CCn1cc2cc(C#Cc3ccc(C4(COP(=O)(O)O)CC4)cc3)ccc2n1)(C(=O)NO)S(C)(=O)=O [Example 62, (R)-(1-(4-((2-(4-(hydroxyamino)-3-methyl-3-(methylsulfonyl)-4-oxobutyl)-2H-indazol-5-yl)ethynyl)phenyl)cyclopropyl)methyl dihydrogen phosphate] |
| 0.5 | 0.063 | 0.25 | 8 | 8 | 4 | 2 | CN(C)CC(=O)OCC1(c2ccc(C#Cc3ccc4nn(CC[C@](C)(C(=O)NO)S(C)(=O)=O)cc4c3)cc2)CC1.Cl [Example 63, (R)-(1-(4-((2-(4-(hydroxyamino)-3-methyl-3-(methylsulfonyl)-4-oxobutyl)-2H-indazol-5-yl)ethynyl)phenyl)cyclopropyl)methyl dimethylglycinate hydrochloride] |
